In ChEMBL document CHEMBL4033767, “Structure-Guided Strategy for the Development of Potent Bivalent ERK Inhibitors” (ACS Med Chem Lett, 2017):
pIC50, pKd: −log10 of the molar value. Values belong to the compound of their own block, whether it stands above or below them. Residues, ends and D or L forms follow the SMILES beside them. *: point of attachment. X1 = Nc1nn(CC(=O)*)c2nnc(-c3c(-c4ccccc4)nn4ccccc34)cc12; PEG4 = NCCOCCOCCOCCOCCC(=O)O

How the values were obtained:
[1] = biological target: T1, Mitogen-activated protein kinase 1 (Homo sapiens, UniProt P28482); assay: Inhibition of phosphorylated ERK2 (unknown origin) using myelin basic protein as substrate after 2 hrs in presence of ATP by ADP-glo assay
[2] = biological target: T1, Mitogen-activated protein kinase 1; assay: Binding affinity to non-phosphorylated full length N-terminal His6-tagged/SUMO-fused ERK2 (1 to 360 residues) (unknown origin) by isothermal titration method
[3] = organism: Homo sapiens; assay: Selectivity ratio of compound affinity for C-terminal FLAG-tagged human ERK2 to C-terminal FLAG-tagged human p38 alpha
[4] = biological target: Mitogen-activated protein kinase 3 (Homo sapiens) (UniProt P27361); assay: Inhibition of full length wild type human ERK1 (M1 to P379 residues) expressed in bacterial expression system assessed as residual activity at 2 uM by KINOMEscan assay
[5] = biological target: Mitogen-activated protein kinase 8 (Homo sapiens) (UniProt P45983); assay: Inhibition of full length wild type human JNK1 (M1 to Q384 residues) expressed in mammalian expression system assessed as residual activity at 2 uM by KINOMEscan assay
[6] = biological target: Mitogen-activated protein kinase 9 (Homo sapiens) (UniProt P45984); assay: Inhibition of full length wild type human JNK2 (M1 to Q382 residues) expressed in mammalian expression system assessed as residual activity at 2 uM by KINOMEscan assay
[7] = biological target: Mitogen-activated protein kinase 10 (Homo sapiens) (UniProt P53779); assay: Inhibition of full length wild type human JNK3 (M1 to Q382 residues) expressed in mammalian expression system assessed as residual activity at 2 uM by KINOMEscan assay
[8] = biological target: Mitogen-activated protein kinase 14 (Homo sapiens) (UniProt Q16539); assay: Inhibition of full length wild type human p38alpha (M1 to S360 residues) expressed in bacterial expression system assessed as residual activity at 2 uM by KINOMEscan assay
[9] = biological target: Mitogen-activated protein kinase 11 (Homo sapiens) (UniProt Q15759); assay: Inhibition of full length wild type human p38beta (M1 to Q364 residues) expressed in bacterial expression system assessed as residual activity at 2 uM by KINOMEscan assay
[10] = biological target: Glycogen synthase kinase-3 beta (Homo sapiens, UniProt P49841); assay: Binding affinity to full length wild type human GSK3beta (M1 to T433 residues) expressed in mammalian expression system by KINOMEscan assay
Chain of Glycogen synthase kinase-3 beta (P49841 whole entry, the tested form may be a part): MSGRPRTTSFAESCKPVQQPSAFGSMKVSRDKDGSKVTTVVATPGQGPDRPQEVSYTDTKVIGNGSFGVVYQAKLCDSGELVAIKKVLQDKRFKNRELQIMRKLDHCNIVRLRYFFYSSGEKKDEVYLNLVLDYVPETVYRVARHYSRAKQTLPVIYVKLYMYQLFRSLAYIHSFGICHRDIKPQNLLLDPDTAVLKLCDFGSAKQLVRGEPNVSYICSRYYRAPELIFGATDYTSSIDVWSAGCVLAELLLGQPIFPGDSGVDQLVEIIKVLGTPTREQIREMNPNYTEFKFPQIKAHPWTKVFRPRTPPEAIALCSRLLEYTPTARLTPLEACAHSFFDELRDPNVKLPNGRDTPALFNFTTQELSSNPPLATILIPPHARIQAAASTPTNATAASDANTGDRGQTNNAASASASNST

T1 sequence (P28482 whole entry, the tested form may be a part): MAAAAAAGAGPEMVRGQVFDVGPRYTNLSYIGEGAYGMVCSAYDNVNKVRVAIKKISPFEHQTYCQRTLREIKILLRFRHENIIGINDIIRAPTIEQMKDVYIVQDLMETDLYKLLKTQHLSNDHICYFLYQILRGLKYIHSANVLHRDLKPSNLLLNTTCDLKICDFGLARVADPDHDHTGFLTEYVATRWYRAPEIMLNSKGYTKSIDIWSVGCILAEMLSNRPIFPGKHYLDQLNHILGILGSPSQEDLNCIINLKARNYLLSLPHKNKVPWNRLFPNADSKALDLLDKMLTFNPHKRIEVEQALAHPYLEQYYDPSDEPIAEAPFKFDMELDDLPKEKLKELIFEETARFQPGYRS
Chain of Mitogen-activated protein kinase 14 (Homo sapiens) (Q16539 whole entry, the tested form may be a part): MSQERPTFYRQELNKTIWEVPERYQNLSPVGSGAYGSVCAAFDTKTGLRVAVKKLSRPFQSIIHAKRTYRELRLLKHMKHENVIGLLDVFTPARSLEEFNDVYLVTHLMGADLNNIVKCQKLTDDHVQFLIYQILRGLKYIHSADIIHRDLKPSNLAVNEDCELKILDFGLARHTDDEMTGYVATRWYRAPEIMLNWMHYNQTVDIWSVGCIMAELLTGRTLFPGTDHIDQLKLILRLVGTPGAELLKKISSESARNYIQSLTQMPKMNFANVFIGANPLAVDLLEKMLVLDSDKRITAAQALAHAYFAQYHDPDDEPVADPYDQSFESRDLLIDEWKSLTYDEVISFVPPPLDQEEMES
Chain of Mitogen-activated protein kinase 11 (Homo sapiens) (Q15759 whole entry, the tested form may be a part): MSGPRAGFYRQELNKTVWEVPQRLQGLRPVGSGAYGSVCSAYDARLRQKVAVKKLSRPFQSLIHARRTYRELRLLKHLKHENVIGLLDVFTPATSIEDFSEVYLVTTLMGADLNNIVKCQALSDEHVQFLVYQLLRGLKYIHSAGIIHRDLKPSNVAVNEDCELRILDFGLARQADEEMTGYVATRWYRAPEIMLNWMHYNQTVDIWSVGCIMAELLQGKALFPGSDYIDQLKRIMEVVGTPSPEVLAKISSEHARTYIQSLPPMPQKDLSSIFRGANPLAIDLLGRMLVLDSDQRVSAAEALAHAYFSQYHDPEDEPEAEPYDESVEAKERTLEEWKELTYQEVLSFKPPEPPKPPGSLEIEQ
Chain of Mitogen-activated protein kinase 9 (Homo sapiens) (P45984 whole entry, looked up, the tested form may be a part): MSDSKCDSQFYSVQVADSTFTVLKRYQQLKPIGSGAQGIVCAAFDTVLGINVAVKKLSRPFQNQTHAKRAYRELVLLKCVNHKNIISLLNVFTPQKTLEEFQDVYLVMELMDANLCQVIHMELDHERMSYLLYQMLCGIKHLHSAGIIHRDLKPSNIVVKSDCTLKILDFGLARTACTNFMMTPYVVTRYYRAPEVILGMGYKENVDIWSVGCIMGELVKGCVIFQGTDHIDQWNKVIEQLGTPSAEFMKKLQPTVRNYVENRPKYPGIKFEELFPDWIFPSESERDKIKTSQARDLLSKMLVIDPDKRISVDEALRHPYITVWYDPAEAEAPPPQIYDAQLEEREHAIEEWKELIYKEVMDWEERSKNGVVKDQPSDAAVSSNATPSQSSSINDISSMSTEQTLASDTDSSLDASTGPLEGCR
Chain of Mitogen-activated protein kinase 10 (Homo sapiens) (P53779 whole entry, the tested form may be a part): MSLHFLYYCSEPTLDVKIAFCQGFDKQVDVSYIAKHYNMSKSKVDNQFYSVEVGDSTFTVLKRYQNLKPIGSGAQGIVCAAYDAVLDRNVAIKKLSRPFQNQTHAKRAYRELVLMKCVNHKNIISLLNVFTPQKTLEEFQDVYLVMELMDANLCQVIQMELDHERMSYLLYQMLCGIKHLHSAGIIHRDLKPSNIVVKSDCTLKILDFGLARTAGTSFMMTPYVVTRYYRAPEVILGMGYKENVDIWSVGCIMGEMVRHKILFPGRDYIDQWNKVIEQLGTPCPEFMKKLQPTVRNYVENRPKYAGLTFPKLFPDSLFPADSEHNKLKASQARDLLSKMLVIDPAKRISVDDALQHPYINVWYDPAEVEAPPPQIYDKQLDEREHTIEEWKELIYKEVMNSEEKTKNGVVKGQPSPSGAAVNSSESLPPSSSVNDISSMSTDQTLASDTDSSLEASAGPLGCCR
Chain of Mitogen-activated protein kinase 8 (Homo sapiens) (P45983 whole entry, the tested form may be a part): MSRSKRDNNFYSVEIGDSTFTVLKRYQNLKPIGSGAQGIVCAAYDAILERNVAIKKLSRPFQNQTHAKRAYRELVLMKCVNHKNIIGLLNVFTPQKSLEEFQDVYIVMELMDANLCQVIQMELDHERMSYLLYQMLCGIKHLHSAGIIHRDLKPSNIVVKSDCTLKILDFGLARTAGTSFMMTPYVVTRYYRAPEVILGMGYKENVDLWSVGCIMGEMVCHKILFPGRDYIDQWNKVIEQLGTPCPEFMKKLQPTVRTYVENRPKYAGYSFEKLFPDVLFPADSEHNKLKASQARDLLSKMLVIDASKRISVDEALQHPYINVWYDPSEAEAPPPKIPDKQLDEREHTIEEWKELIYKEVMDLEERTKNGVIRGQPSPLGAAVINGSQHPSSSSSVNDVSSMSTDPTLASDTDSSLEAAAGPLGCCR
Chain of Mitogen-activated protein kinase 3 (Homo sapiens) (P27361 whole entry, the tested form may be a part): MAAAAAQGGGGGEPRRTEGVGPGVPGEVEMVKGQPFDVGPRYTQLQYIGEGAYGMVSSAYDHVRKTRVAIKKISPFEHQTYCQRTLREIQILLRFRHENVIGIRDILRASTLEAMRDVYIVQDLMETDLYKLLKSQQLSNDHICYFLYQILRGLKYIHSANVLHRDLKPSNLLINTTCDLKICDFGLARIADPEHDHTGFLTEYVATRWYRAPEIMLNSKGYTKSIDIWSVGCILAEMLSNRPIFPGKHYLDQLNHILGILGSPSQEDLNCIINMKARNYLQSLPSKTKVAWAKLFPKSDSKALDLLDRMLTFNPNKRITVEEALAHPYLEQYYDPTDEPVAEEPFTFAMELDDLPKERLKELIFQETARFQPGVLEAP

pIC50 [1]: 7.85
Compound: CC[C@H](C)[C@H](NC(=O)[C@H](CO)NC(=O)[C@H](CO)NC(=O)[C@H](CCC(=O)O)NC(=O)[C@@H](NC(=O)[C@@H]1CCCN1C(=O)[C@H](CCCCN)NC(=O)[C@H](CC(C)C)NC(=O)[C@H](CCC(N)=O)NC(=O)[C@H](C)NC(=O)[C@@H](NC(=O)CCOCCOCCOCCOCCNC(=O)Cn1nc(N)c2cc(-c3c(-c4ccccc4)nn4ccccc34)nnc21)[C@@H](C)O)[C@@H](C)CC)C(=O)N[C@@H](CC(C)C)C(=O)N[C@@H](C)C(=O)N[C@@H](CCC(N)=O)C(=O)N[C@@H](CCCNC(=N)N)C(=O)N[C@@H](CCCNC(=N)N)C(=O)N[C@H](C(=O)N[C@@H](CCCNC(=N)N)C(=O)N[C@@H](CCCCN)C(=O)N[C@@H](CCCNC(=N)N)C(=O)N[C@@H](CCCCN)C(=O)N[C@@H](CCCCN)C(=O)N[C@@H](CCCNC(=N)N)C(=O)N[C@@H](CCCNC(=N)N)C(=O)N[C@@H](CCC(N)=O)C(=O)N[C@@H](CCCNC(=N)N)C(=O)N[C@@H](CCCNC(=N)N)C(=O)N[C@@H](CCCNC(=N)N)C(=O)O)C(C)C ({X1-PEG4}-TAQLKPIESSILAQRRVRKRKKRRQRRR-OH)

pIC50 [1]: 6.15
Compound: CC[C@H](C)[C@H](NC(=O)[C@H](CCC(=O)O)NC(=O)CCOCCOCCOCCOCCNC(=O)Cn1nc(N)c2cc(-c3c(-c4ccccc4)nn4ccccc34)nnc21)C(=O)N[C@H](C(=O)N[C@@H](CCCCN)C(=O)N[C@@H](CC(C)C)C(=O)N[C@@H](C)C(=O)N1CCC[C@H]1C(=O)N1CCC[C@H]1C(=O)N1CCC[C@H]1C(=O)N[C@@H](CCCCN)C(=O)N[C@@H](CCCCN)C(=O)N[C@@H](C)C(=O)O)[C@@H](C)CC ({X1-PEG4}-EIIKLAPPPKKA-OH)

Activity [4]: 0.15% | Activity [5]: 0.1% | Activity [6]: 0.1% | Activity [7]: 0.1% | Activity [8]: 0.25% | Activity [9]: 11% | pKd [10]: < 5.60
Compound: CC[C@H](C)[C@H](NC(=O)[C@H](CO)NC(=O)[C@H](CO)NC(=O)[C@H](CCC(=O)O)NC(=O)[C@@H](NC(=O)[C@@H]1CCCN1C(=O)[C@H](CCCCN)NC(=O)[C@H](CC(C)C)NC(=O)[C@H](CCC(N)=O)NC(=O)[C@H](C)NC(=O)[C@@H](NC(=O)CNC(=O)C(N)CCCCn1cc(CCCCNC(=O)CCCCCn2nc(N)c3cc(-c4c(-c5ccccc5)nn5ccccc45)nnc32)nn1)[C@@H](C)O)[C@@H](C)CC)C(=O)N[C@@H](CC(C)C)C(=O)N[C@@H](C)C(=O)N[C@@H](CCC(N)=O)C(=O)N[C@@H](CCCNC(=N)N)C(=O)N[C@@H](CCCNC(=N)N)C(=O)N[C@H](C(=O)N[C@@H](CCCNC(=N)N)C(=O)N[C@@H](CCCCN)C(=O)O)C(C)C (some centres not stated)

The next lines start with the compound.

Compound: H-EIIKLAPPPKKA-OH
pKd [2]: 4.74

Compound: H-PQLKPIESSILAQRRVRKLPSTTL-OH
Selectivity ratio [3]: 20

Compound: Nc1nn(CC(=O)O)c2nnc(-c3c(-c4ccccc4)nn4ccccc34)cc12
pIC50 [1]: 4.91
